Measured values reported in PubChem BioAssay (NCI).
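Each compound was tested at five concentrations against cells in 96-well plates for 48 hours. TGI is the concentration that stops growth completely.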

Key:
Experiment in all cases: NCI anticancer screen, dose series, 48 h
[1] = test system: UO-31 renal
[2] = test system: SN12C renal
[3] = test system: A549 NSCLC
[4] = test system: MDA-N
[5] = test system: PC-3 prostate
[6] = test system: SNB-19 CNS
[7] = test system: LOX IMVI melanoma
[8] = test system: HT29 colon
[9] = test system: HCT-15 colon
[10] = test system: CCRF-CEM leukemia
[11] = test system: UACC-62 melanoma
[12] = test system: SF-539 CNS
[13] = test system: HOP-62 NSCLC
[14] = test system: SK-MEL-28 melanoma
[15] = test system: SK-MEL-5 melanoma
[16] = test system: MDA-MB-435
[17] = test system: MOLT-4 leukemia
[18] = test system: OVCAR-3 ovarian
[19] = test system: SR leukemia
[20] = test system: OVCAR-8 ovarian
[21] = test system: HCT-116 colon
[22] = test system: SF-295 CNS
[23] = test system: IGROV1 ovarian
[24] = test system: RPMI-8226 leukemia
[25] = test system: MCF7 breast
[26] = test system: HL-60(TB) leukemia
[27] = test system: DU-145 prostate
[28] = test system: OVCAR-4 ovarian
[29] = test system: COLO 205 colon
[30] = test system: MDA-MB-231 breast
[31] = test system: SK-OV-3 ovarian
[32] = test system: CAKI-1 renal
[33] = test system: NCI-H23 lung
[34] = test system: 786-0 renal
[35] = test system: NCI/ADR-RES ovarian
[36] = test system: ACHN renal
[37] = test system: A498 renal
[38] = test system: SW-620 colon
[39] = test system: K-562 leukemia
[40] = test system: HS 578T breast
[41] = test system: OVCAR-5 ovarian
[42] = test system: HOP-92 NSCLC
[43] = test system: T-47D breast
[44] = test system: U251 CNS
[45] = test system: UACC-257 melanoma
[46] = test system: KM12 colon
[47] = test system: SF-268 CNS
[48] = test system: NCI-H522 lung
[49] = test system: BT-549 breast
[50] = test system: NCI-H460 lung
[51] = test system: SK-MEL-2 melanoma
[52] = test system: EKVX NSCLC
[53] = test system: HCC-2998 colon
[54] = test system: TK-10 renal
[55] = test system: SNB-75 CNS
[56] = test system: NCI-H226 lung
[57] = test system: MALME-3M melanoma
[58] = test system: M14 melanoma
[59] = test system: RXF 393 renal

Question: How did the TGI [1] turn out when `COc1cc(C2SCC(=O)N2c2ccc(-n3c(-c4ccccc4)nc4ccccc4c3=O)cc2)cc(OC)c1OC` (stereo not drawn) was run?
Answer: The TGI was 71.4 µM.

Question: And the TGI [2]?
Answer: Its TGI is greater than 100 µM.

Question: And the TGI [3]?
Answer: Its TGI is greater than 100 µM.

Question: And the TGI [4]?
Answer: The TGI was greater than 100 µM.

Question: What about the TGI [5] of the same compound?
Answer: Its TGI is greater than 100 µM.

Question: And the TGI [6]?
Answer: The TGI was greater than 100 µM.

Question: What about the TGI [7] of the same compound?
Answer: Its TGI is greater than 100 µM.

Question: And the TGI [8]?
Answer: The TGI was greater than 100 µM.

Question: And the TGI [9]?
Answer: The TGI was greater than 100 µM.

Question: And the TGI [10]?
Answer: The TGI was greater than 100 µM.

Question: And the TGI [11]?
Answer: Its TGI is greater than 100 µM.

Question: What about the TGI [12] of the same compound?
Answer: The TGI was greater than 100 µM.

Question: What about the TGI [13] of the same compound?
Answer: Its TGI is greater than 100 µM.

Question: What about the TGI [14] of the same compound?
Answer: Its TGI is greater than 100 µM.

Question: And the TGI [15]?
Answer: The TGI was greater than 100 µM.

Question: What about the TGI [16] of the same compound?
Answer: The TGI was greater than 100 µM.

Question: What about the TGI [17] of the same compound?
Answer: The TGI was greater than 100 µM.

Question: And the TGI [18]?
Answer: The TGI was greater than 100 µM.

Question: And the TGI [19]?
Answer: Its TGI is greater than 100 µM.

Question: And the TGI [20]?
Answer: The TGI was greater than 100 µM.

Question: And the TGI [21]?
Answer: The TGI was greater than 100 µM.

Question: What about the TGI [22] of the same compound?
Answer: Its TGI is greater than 100 µM.

Question: And the TGI [23]?
Answer: The TGI was greater than 100 µM.

Question: And the TGI [24]?
Answer: The TGI was greater than 100 µM.

Question: And the TGI [25]?
Answer: Its TGI is greater than 100 µM.

Question: And the TGI [26]?
Answer: Its TGI is greater than 100 µM.

Question: What about the TGI [27] of the same compound?
Answer: Its TGI is greater than 100 µM.

Question: What about the TGI [28] of the same compound?
Answer: Its TGI is greater than 100 µM.

Question: What about the TGI [29] of the same compound?
Answer: The TGI was greater than 100 µM.

Question: And the TGI [30]?
Answer: The TGI was greater than 100 µM.

Question: What about the TGI [31] of the same compound?
Answer: The TGI was greater than 100 µM.

Question: And the TGI [32]?
Answer: The TGI was greater than 100 µM.

Question: What about the TGI [33] of the same compound?
Answer: The TGI was greater than 100 µM.

Question: What about the TGI [34] of the same compound?
Answer: The TGI was greater than 100 µM.

Question: And the TGI [35]?
Answer: The TGI was greater than 100 µM.

Question: And the TGI [36]?
Answer: The TGI was greater than 100 µM.

Question: And the TGI [37]?
Answer: The TGI was greater than 100 µM.

Question: And the TGI [38]?
Answer: The TGI was greater than 100 µM.

Question: And the TGI [39]?
Answer: The TGI was greater than 100 µM.

Question: And the TGI [40]?
Answer: The TGI was greater than 100 µM.

Question: What about the TGI [41] of the same compound?
Answer: Its TGI is greater than 100 µM.

Question: What about the TGI [42] of the same compound?
Answer: Its TGI is 84.2 µM.

Question: What about the TGI [43] of the same compound?
Answer: The TGI was greater than 100 µM.

Question: And the TGI [44]?
Answer: The TGI was greater than 100 µM.

Question: And the TGI [45]?
Answer: The TGI was greater than 100 µM.

Question: And the TGI [46]?
Answer: Its TGI is greater than 100 µM.

Question: And the TGI [47]?
Answer: Its TGI is greater than 100 µM.

Question: And the TGI [48]?
Answer: Its TGI is greater than 100 µM.

Question: And the TGI [49]?
Answer: The TGI was greater than 100 µM.

Question: And the TGI [50]?
Answer: The TGI was greater than 100 µM.

Question: And the TGI [51]?
Answer: Its TGI is greater than 100 µM.

Question: And the TGI [52]?
Answer: The TGI was greater than 100 µM.

Question: And the TGI [53]?
Answer: Its TGI is greater than 100 µM.

Question: What about the TGI [54] of the same compound?
Answer: Its TGI is greater than 100 µM.

Question: What does the source list for `CC1(C)CC2=C(Sc3ccccc3N2)C(=O)C1C(=O)C(=O)Nc1cccc([N+](=O)[O-])c1` (stereo not drawn)?
Answer: TGI [1]: > 100 µM; TGI [2]: > 100 µM; TGI [3]: > 100 µM; TGI [4]: > 100 µM; TGI [5]: > 100 µM; TGI [6]: > 100 µM; TGI [7]: > 100 µM; TGI [8]: > 100 µM; TGI [9]: > 100 µM; TGI [10]: > 100 µM; TGI [11]: > 100 µM; TGI [12]: > 100 µM; TGI [14]: > 100 µM; TGI [15]: > 100 µM; TGI [16]: > 100 µM; TGI [17]: > 100 µM; TGI [55]: > 100 µM; TGI [18]: > 100 µM; TGI [20]: > 100 µM; TGI [21]: > 100 µM; TGI [22]: > 100 µM; TGI [56]: > 100 µM; TGI [23]: > 100 µM; TGI [24]: > 100 µM; TGI [25]: > 100 µM; TGI [26]: > 100 µM; TGI [57]: > 100 µM; TGI [27]: > 100 µM; TGI [28]: > 100 µM; TGI [29]: > 100 µM; TGI [30]: > 100 µM; TGI [31]: > 100 µM; TGI [32]: > 100 µM; TGI [58]: > 100 µM; TGI [33]: > 100 µM; TGI [34]: > 100 µM; TGI [35]: > 100 µM; TGI [36]: > 100 µM; TGI [37]: > 100 µM; TGI [38]: > 100 µM; TGI [39]: > 100 µM; TGI [40]: > 100 µM; TGI [41]: > 100 µM; TGI [42]: > 100 µM; TGI [43]: > 100 µM; TGI [44]: > 100 µM; TGI [45]: > 100 µM; TGI [46]: > 100 µM; TGI [47]: > 100 µM; TGI [48]: > 100 µM; TGI [49]: > 100 µM; TGI [50]: > 100 µM; TGI [51]: > 100 µM; TGI [52]: > 100 µM; TGI [53]: > 100 µM; TGI [54]: > 100 µM

Question: Which results are given for `C=C1C(=O)O[C@@H]2[C@@H]3O[C@@H](C[C@@H]13)[C@](C)(O)CC/C=C(\C)CCC[C@@H]2C`?
Answer: TGI [1]: 23 µM; TGI [2]: 25.3 µM; TGI [3]: 34.3 µM; TGI [4]: 18.3 µM; TGI [5]: 22.9 µM; TGI [6]: 29.8 µM; TGI [7]: 19.2 µM; TGI [8]: > 100 µM; TGI [9]: 33.4 µM; TGI [10]: 34.8 µM; TGI [11]: 25.4 µM; TGI [12]: 24.9 µM; TGI [13]: 30.5 µM; TGI [14]: 33.3 µM; TGI [15]: 30.6 µM; TGI [16]: 24.9 µM; TGI [17]: > 100 µM; TGI [55]: 26.1 µM; TGI [18]: 25.8 µM; TGI [20]: 22.2 µM; TGI [21]: 21.2 µM; TGI [22]: 44.7 µM; TGI [56]: 36.1 µM; TGI [23]: 22.6 µM; TGI [24]: 20.6 µM; TGI [25]: 22.1 µM; TGI [26]: 10.4 µM; TGI [57]: 26.8 µM; TGI [27]: 29.6 µM; TGI [28]: 29.6 µM; TGI [29]: 31.5 µM; TGI [30]: 37.5 µM; TGI [31]: 34 µM; TGI [32]: 28.6 µM; TGI [58]: 27 µM; TGI [33]: 28 µM; TGI [34]: 18.9 µM; TGI [35]: 38.5 µM; TGI [36]: 21.2 µM; TGI [37]: 26.2 µM; TGI [38]: 38.4 µM; TGI [39]: 85.5 µM; TGI [40]: 37.8 µM; TGI [41]: 48 µM; TGI [42]: 29.3 µM; TGI [43]: 43.9 µM; TGI [44]: 22.8 µM; TGI [45]: 27 µM; TGI [46]: 43.1 µM; TGI [47]: 43.9 µM; TGI [59]: 30.1 µM; TGI [48]: 20.1 µM; TGI [49]: 27.5 µM; TGI [50]: 30.8 µM; TGI [51]: 27.7 µM; TGI [52]: 32 µM; TGI [53]: 32.7 µM; TGI [54]: 27.7 µM
